# Results reported in patent US20070202079A1, “Therapeutic compositions and methods useful in modulating protein tyrosine phosphatases” (priority 2006, published 2007).
# How the values were obtained:
# MDA231 = MDA231 cell growth, MTT; assay type: cell-based, human; settings: 50 μg/ml, day 6 culture
# Protocol: For cell proliferation assays, cells were grown in 10% FCS culture medium containing various amounts of IFNs and/or sodium stibogluconate in 96 well plates and cultured at 37° C. for 3 or 6 days as indicated. The numbers of viable cells in proliferation assays were determined by MTT assays as described in Phatak et al., J. Immunol. 167, 3391 (2001).
# [1] = tested on: human prostate carcinoma DU145 xenografts; test: DU145 xenografts in nude mice; assay type: in vivo; settings: daily 440 mg/kg
# Protocol: Nude mice bearing WM9 or DU145 xenografts were treated with IFN-alpha (500,000 U, s.c., daily), sodium stibogluconate (12 mg Sb, s.c., daily) or both. […] The dosage of sodium stibogluconate corresponds to approximately 440 mg Sb/kg body weight (average mouse body weight 27 g), substantially higher than the standard therapeutic dose of 20 mg Sb/kg and the high dose (143 mg Sb/kg) that was clinically used by accident without serious toxicity. This dose of sodium stibogluconate was based on a previous observation in a pilot study that mice could tolerate daily dose of 20 mg Sb (approximately 700-800 mg Sb/kg). […]
# For each of the cell lines, each of 16 mice received subcutaneous injection at the chest area of 3×10^6 cells/site (WM9) or 2×10^6 cells/site (DU145), two sites/mouse, on day 0. […] Tumor size was measured with a caliper to determine the two perpendicular diameters of each tumor. Tumor volume was calculated using the method of the NCI (length×width 2 in millimeters/2=volume in cubic millimeters).
# Athymic nude mice (nu/nu, NCR), 4 weeks old (Taconic), were inoculated (s.c.) in the flanks with DU145 cells (3×10^6 cells/site) on day 0. […] Tumor volume was measured and calculated using the formula for a prolate spheroid (V=4/3 7 a^2b) (Lindner, et al. 1997). […]
# [2] = tested on: tumor-infiltrating and spleen immune cells (F4/80+, CD4+, CD8+); test: immunohistochemistry of Renca tumors and spleen; assay type: in vivo, Balb/c mice; settings: mouse, in vivo
# Protocol: Major internal organs and Renca tumors harvested from mice were fixed in 10% formalin or snap frozen in liquid nitrogen. H & E-stained tissue sections of the fixed samples were prepared and evaluated by microscopy as described previously (Yi, T., M. K. Pathak, D. J. Lindner, M. E. Ketterer, C. Farver, and E. C. Borden. 2002. Anticancer activity of sodium stibogluconate in synergy with IFNs. J Immunol 169:5978). Preparation of frozen tissue sections and immunohistochemistry were performed following established procedures (Joliat, M. J., P. A. Lang, B. L. Lyons, L. Burzenski, M. A. Lynes, T. Yi, J. P. Sundberg, and L. D. Shultz. 2002. Absence of CD5 dramatically reduces progression of pulmonary inflammatory lesions in SHP-1 protein-tyrosine phosphatase-deficient ‘viable motheaten’ mice. J Autoimmun 18:105). The antibodies used for immunohistochemistry were anti-CD4 (rat mAb, clone GK1.5, BD Biosciences, Franklin Lakes, N.J.), anti-CD8 (rat mAb, clone 53-6.7.5, BD Biosciences, Franklin Lakes, N.J.), anti-F4/80 (rat mAb, clone A3-1, Serotec, Oxford, UK) and anti-Asialo GM1 (rabbit polyclonal, Cedarlane, Hornby, Canada). […] Tissue sections of 2 mice/group were evaluated. The number of immune cells was semi-quantified based on the following scheme: […], 0-1 positive cells/40×field; +, 2-5 positive cells/40×field; ++, 6-10 positive cells/40×field, etc.
# LoVo = LoVo cell growth, MTT; assay type: cell-based, human; settings: 100 μg/ml, day 6
# Protocol: (§1) NIH3T3 (Yi, et al., Blood 85, 87 (1995)), WM9 (Forsberg, et al., Proc. Nat. Acad Sci. USA 90, 393 (1993)), DU145 (Mickey, et al., Cancer Res. 37, 4049 (1977)), LoVo (Drewinko, et al., Cancer Res. 36, 467 (1976)), HEY (Buick, et al., Cancer Res. 45, 3668 (1985)), U251 (Yoshida, et al., Cancer 50, 410 (1982)), A549 (Giard, et al., J. Natl. Cancer Inst. 51, 1417 (1973)) and SK-N-SH (Helson, et al., Cancer Res. 35, 2594 (1975)) cell lines have been described and were cultured in RPMI 1640 supplemented with 10% fetal calf serum (FCS). For measurement of sodium stibogluconate effects on cell growth in vitro, cells were cultured in the absence (−) or presence (+) of various amounts of sodium stibogluconate for 6 days with viable cells quantified by MTT assays (Mosmann, J. Immunol. Methods 65, 55 (1983)). Percentages of growth inhibition by sodium stibogluconate were calculated (.+−.x%).
# [3] = tested on: WM9 PRL-1R86 transfectant; test: growth of WM9 PRL-1R86 transfectant, MTT; assay type: cell-based, human; settings: 50 or 100 μg/ml, 6 days
# Protocol: as §1
# The effects of sodium stibogluconate on intracellular PTPases were assessed using NIH3T3 or WM9 transfectants. NIH3T3 or WM9 cells were transfected with the pBabepuro vector (V) or pBabepuro expression constructs of Flag-tagged PRLs using Lipofectamine (BRL) following the manufacturer's procedures. […]
smiles,measurement,setting,value
O.O.O.O.O.O.O.O.O.O=C([O-])[C@@H]1[O][Sb]2([O-])([O][Sb]34([OH])[O][C@H]([C@H](O)CO)[C@H]([O]3)[C@H](C(=O)[O-])[O]4)[O][C@H]([C@H](O)CO)[C@@H]1[O]2.[Na+].[Na+].[Na+] [sodium stibogluconate],"MDA231 cells, single agent",MDA231,killed all cells
same,toxicity in DU145 tumor mice,[1],no obvious toxicity
same,numbers of tumor-infiltrating T cells or NK cells,[2],little effect
same,cell killing of LoVo,LoVo,near-complete cell killing
same,growth inhibition of R86 cells,[3],only modest growth inhibition
